Data from ChEMBL document CHEMBL4382259, “Synthesis of novel guttiferone E and xanthochymol derivatives with cytotoxicities by inducing cell apoptosis and arresting the cell cycle phase” (Eur J Med Chem, 2019).

How the values were obtained:
Format in all cases: functional, cell-based
HEL = assay: Antiproliferative activity against HEL cells after 72 hrs by MTT assay; conditions: Homo sapiens
K562 = assay: Antiproliferative activity against human K562 cells after 72 hrs by MTT assay; conditions: K562, 72 h
HeLa = assay: Antiproliferative activity against human HeLa cells after 72 hrs by MTT assay
MCF7 = assay: Antiproliferative activity against human MCF7 cells after 72 hrs by MTT assay; conditions: MCF7, 72 h
A549 = assay: Antiproliferative activity against human A549 cells after 72 hrs by MTT assay; conditions: A549, 72 h

IC50 (K562) [µM] | IC50 (HeLa) [µM] | IC50 (MCF7) [µM] | IC50 (A549) [µM] | SMILES | IC50 (HEL) [µM]
13.9 | 10.8 | > 20 | > 20 | CC(C)=CC[C@H]1C[C@@]23C[C@@H](CC=C(C)C)C(C)(C)[C@@](CC=C(C)C)(C(=O)C(C(=O)c4ccc(O)c(OC(=O)c5cccs5)c4)=C2OC1(C)C)C3=O | 9.56
> 20 | 5.32 | 4.83 | 12.3 | CC(=O)Oc1ccc(C(=O)C2=C3OC(C)(C)[C@@H](CC=C(C)C)C[C@@]34C[C@@H](CC=C(C)C)C(C)(C)[C@H]3CCC(C)(C)O[C@]34OC2=O)cc1OC(C)=O | > 20
> 20 | 11.9 | 16.8 | 11.7 | CC(C)=CC[C@H]1C[C@]23C[C@@H](CC=C(C)C)C(C)(C)[C@H]4CCC(C)(C)O[C@]42OC(=O)C(C(=O)c2ccc(OC(=O)c4ccc(F)cc4)c(OC(=O)c4ccc(F)cc4)c2)=C3OC1(C)C | > 20
> 20 | 8.8 | 16.5 | 20 | CC(C)=CC[C@H]1C[C@@]23C[C@@H](CC=C(C)C)C(C)(C)[C@@](CC=C(C)C)(C(=O)C(C(=O)c4ccc(OC(=O)c5cccs5)c(OC(=O)c5cccs5)c4)=C2OC1(C)C)C3=O | > 20
14.5 | > 20 | > 20 | > 20 | CC(C)=CC[C@H]1C[C@@]23C[C@@H](CC=C(C)C)C(C)(C)[C@@](CC=C(C)C)(C(=O)C(C(=O)c4ccc(O)c(OC(=O)CCCCCBr)c4)=C2OC1(C)C)C3=O | 9.62
> 20 | 6.25 | 3.15 | 9.53 | CC(C)=CC[C@H]1C[C@@]23C[C@@H](CC=C(C)C)C(C)(C)[C@@](CC=C(C)C)(C(=O)C(C(=O)c4ccc(OS(=O)(=O)c5ccc(C)cc5)c(OS(=O)(=O)c5ccc(C)cc5)c4)=C2OC1(C)C)C3=O | > 20
> 20 | > 20 | > 20 | > 20 | COc1ccc(C(=O)Oc2ccc(C(=O)C3=C4OC(C)(C)[C@@H](CC=C(C)C)C[C@@]45C[C@@H](CC=C(C)C)C(C)(C)[C@H]4CCC(C)(C)O[C@]45OC3=O)cc2OC(=O)c2ccc(OC)cc2)cc1 | > 20
> 20 | > 20 | > 20 | > 20 | CC(C)=CC[C@H]1C[C@]23C[C@@H](CC=C(C)C)C(C)(C)[C@H]4CCC(C)(C)O[C@]42OC(=O)C(C(=O)c2ccc(OC(=O)c4ccccc4)c(OC(=O)c4ccccc4)c2)=C3OC1(C)C | > 20
> 20 | > 20 | > 20 | > 20 | CC(C)=CC[C@H]1C[C@@]23C[C@@H](CC=C(C)C)C(C)(C)[C@@](CC=C(C)C)(C(=O)C(C(=O)c4ccc(OCCCCCBr)c(OCCCCCBr)c4)=C2OC1(C)C)C3=O | > 20
15.3 | > 20 | > 20 | > 20 | CCCCCCCC(=O)Oc1cc(C(=O)C2=C3OC(C)(C)[C@@H](CC=C(C)C)C[C@@]34C[C@@H](CC=C(C)C)C(C)(C)[C@H]3CCC(C)(C)O[C@]34OC2=O)ccc1O | 18.7
> 20 | 10.6 | 15.1 | > 20 | CC(C)=CC[C@H]1C[C@@]23C[C@@H](CC=C(C)C)C(C)(C)[C@@](CC=C(C)C)(C(=O)C(C(=O)c4ccc(OCc5ccccc5)c(OCc5ccccc5)c4)=C2OC1(C)C)C3=O | > 20
17.6 | > 20 | > 20 | > 20 | C#CCOc1ccc(C(=O)C2=C3OC(C)(C)[C@@H](CC=C(C)C)C[C@@]34C[C@@H](CC=C(C)C)C(C)(C)[C@@](CC=C(C)C)(C2=O)C4=O)cc1OCC#C | 8.89
> 20 | 19.7 | > 20 | > 20 | COc1ccc(C(=O)C2=C3OC(C)(C)[C@@H](CC=C(C)C)C[C@@]34C[C@@H](CC=C(C)C)C(C)(C)[C@@](CC=C(C)C)(C2=O)C4=O)cc1OC | > 20
> 20 | 12.2 | 18.6 | > 20 | CC(C)=CCOc1ccc(C(=O)C2=C3OC(C)(C)[C@@H](CC=C(C)C)C[C@@]34C[C@@H](CC=C(C)C)C(C)(C)[C@@](CC=C(C)C)(C2=O)C4=O)cc1O | > 20
14.1 | 16.5 | 10.2 | 19.2 | CC(C)=CC[C@H]1C[C@@]23C[C@@H](CC=C(C)C)C(C)(C)[C@@](CC=C(C)C)(C(=O)C(C(=O)c4ccc(O)c(O)c4)=C2OC1(C)C)C3=O [CAMBOGIN] | 9.24
12.1 | > 20 | > 20 |  | CCC(=O)Oc1cc(C(=O)C2=C3OC(C)(C)[C@@H](CC=C(C)C)C[C@@]34C[C@@H](CC=C(C)C)C(C)(C)[C@H]3CCC(C)(C)O[C@]34OC2=O)ccc1O | 9.71
> 20 | 18.4 | 15.8 | > 20 | CC(C)=CC[C@H]1C[C@@]23C[C@@H](CC=C(C)C)C(C)(C)[C@@](CC=C(C)C)(C(=O)C(C(=O)c4ccc(O)c(OS(=O)(=O)c5ccc(C)cc5)c4)=C2OC1(C)C)C3=O | 4.66
14.5 | 10.9 | > 20 | > 20 | COc1ccc(C(=O)C2=C3OC(C)(C)[C@@H](CC=C(C)C)C[C@@]34C[C@@H](CC=C(C)C)C(C)(C)[C@@](CC=C(C)C)(C2=O)C4=O)cc1O | 13.4
> 20 | > 20 | > 20 | > 20 | CC(C)=CC[C@H]1C[C@@]23C[C@@H](CC=C(C)C)C(C)(C)[C@@](CC=C(C)C)(C(=O)C(C(=O)c4ccc(OC(=O)c5ccccc5)c(OC(=O)c5ccccc5)c4)=C2OC1(C)C)C3=O | > 20
> 20 | > 20 | > 20 | 17.2 | CC(C)=CCOc1ccc(C(=O)C2=C3OC(C)(C)[C@@H](CC=C(C)C)C[C@@]34C[C@@H](CC=C(C)C)C(C)(C)[C@@](CC=C(C)C)(C2=O)C4=O)cc1OCC=C(C)C | > 20
13.8 | 6.17 | 9.99 | 9.33 | CC(C)=CC[C@H]1C[C@@]23C[C@@H](CC=C(C)C)C(C)(C)[C@@](CC=C(C)C)(C(=O)C(C(=O)c4ccc(O)c(OC(=O)c5ccccc5)c4)=C2OC1(C)C)C3=O | 9.51
> 20 | > 20 | > 20 | > 20 | CC(C)=CC[C@H]1C[C@@]23C[C@@H](CC=C(C)C)C(C)(C)[C@@](CC=C(C)C)(C(=O)C(C(=O)c4ccc(OC(=O)CCCCCBr)c(OC(=O)CCCCCBr)c4)=C2OC1(C)C)C3=O | > 20
> 20 | 15.8 | > 20 | > 20 | C=CCOc1ccc(C(=O)C2=C3OC(C)(C)[C@@H](CC=C(C)C)C[C@@]34C[C@@H](CC=C(C)C)C(C)(C)[C@@](CC=C(C)C)(C2=O)C4=O)cc1OCC=C | > 20
10.4 | > 20 | > 20 | > 20 | C=C(C)[C@@H](CC=C(C)C)C[C@@]12C[C@@H](CC=C(C)C)C(C)(C)[C@@](CC=C(C)C)(C(=O)c3c1oc1cc(O)c(O)cc1c3=O)C2=O | 4.5
